Structures can show the parent of a compound that is named as a salt.
target: angiotensin II receptor; assay: rat adrenal receptor binding assay, displacement of radiolabeled (125I) angiotensin II; settings: rat adrenal cortex membranes; 1 nM 125I-A II; 35 min at 25° C.; pH 7.4; read-out: IC50, Inhibition of 125I Angiotensin II Binding
Procedure: The high affinity of the compounds for the angiotensin II receptor was established using a rat adrenal receptor binding assay, measuring the displacement of radiolabeled angiotensin II from the receptor, described as follows: Anesthetize male Sprague-Dawley rats (300-400 g body weight) with CO2 and sacrifice by cervical dislocation. Dissect adrenal glands and keep in ice-cold sucrose buffer (0.2M sucrose, 1 mM EDTA, 10 mM Trizma base, pH=7.2). Remove medulla by squashing. Mince the cortex, rinse and homogenize in a chilled ground glass tissue grinder with 15 mL sucrose buffer. Centrifuge at 3000×g for 10 min. (Sorvall RCSC centrifuge, SS34 rotor 6200 rpm). Decant supernatant through gauze. Centrifuge combined supernatant at 12000×g for 13 min. (Beckman ultracentrifuge, 80Ti rotor, 13000 rpm). Centrifuge the supernatant from the previous step at 102000×g for 60 min. (Beckman ultracentrifuge, 80Ti rotor, 38200 rpm). All steps are carried out at 4° C. Resuspend the pellet in 0.5 mL assay buffer (50 mM Tris HCI, 5 mM MgCl2, 0.2% BSA (protease-free), pH=7.4, 25° C.). Store on ice. Determine membrane protein by Lowry or Bradford assay with BSA as standard. The binding assay is performed in triplicate, in 12×75 mm plastic test tubes or in a 96-well plate (final volume of 0.25 mL). Add 140 μL assay buffer. Add 10 μL cold A II (to give final concentrations of 10^-10 -10^-7 M for standard curve and 10^-4 M for nonspecific binding), compounds (e.g., for final concentrations of 25 and 100 μM or 1 μM, 10 nM and 100 nM) in 50% DMSO, or 50% DMSO as a control. Add 50 μL membrane suspension (e.g., 10 μg protein). Preincubate for 30 min at 25° C. Add 50 μL ^125 I-A II which has been prepared as shown below (final concentration=1 nM). Incubate for 35 min at 25° C. Stop the incubation by adding 1 mL ice-cold buffer (assay buffer without BSA). Filter with GF/C filters on cell harvester (filters are presoaked in the assay buffer containing 1% polyethyleneimine). Rinse assay tubes 3× with 5 mL cold buffer (assay buffer without BSA). Cut and deposit the filter discs into test tubes and count on gamma counter for 1 min. Adjust the specific activity of ^125 I-A II purchased from New England Nuclear to 500 μCi/nmole by adding cold A II in water. Calculate the quantities of hot A II and the cold A II needed and make the dilution. Aliquot, seal tight, and store frozen until needed. Calculate the concentration of the total A II (hot+cold) after dilution. On the day of assay, thaw the frozen aliquot and adjust the volume to give a concentration of 5 pmole/mL (or 0.25 pmole/50 μL) with assay buffer (+protease-free BSA). For final concentration of 1 nM ^125 I-A II in the assay, add 50 μL (or 0.25 pmole) per test tube to a final volume of 250 μL. The results of these binding assays are reported as the inhibitory concentration of the test compound necessary to achieve fifty percent displacement of radiolabeled angiotensin II from its receptor (IC50), or the percent displacement of binding of A II at its receptor at 10^-8 M concentration of test compound (% I).

IC50	SMILES
200 µM	CCCc1nc2ccccc2n1CC1=C(c2ccccc2-c2nnn[nH]2)CCC1 [Example 1, 2-Propyl-1-[[2-[2-(1H-tetrazol-5-yl)phenyl]-1-cyclopentenyl]methyl]-1H-benzimidazole]
73 µM	CCCc1nc2ccccc2n1CC1=C(c2cccc(-c3nnn[nH]3)c2)CCC1 [Example 2, 2-Propyl-1-[[2-[3-(1H-tetrazol-5-yl)phenyl]-1-cyclopentenyl]methyl]1H-benzimidazole]
20 µM	CCCc1nc2ccccc2n1Cc1ccc(C2=C(C(=O)O)CCC2)cc1 [Example 3, 2-[4-[(2-Propyl-1H-benzimidazol-1-yl)methyl]phenyl]-1-cyclopentene-1-carboxylic Acid]
25 µM	CCCc1nc2ccccc2n1Cc1ccc(C2CCCC2C(=O)O)cc1 (centres unmarked) [Example 4, 2-[4-[(2-Propyl-1H-benzimidazol-1-yl)methyl]phenyl]cyclopentane-1-carboxylic Acid]
30 µM	CCCc1nc2ccccc2n1CCC1CCN(c2ccccc2-c2nnn[nH]2)CC1 [Example 6, 2-Propyl-1-[2-[1-[2-(1H-tetrazol-5-yl)phenyl]-4-piperidinyl]ethyl]-1H-benzimidazole]
24 µM	CCCc1nc2ccccc2n1Cc1ccc(-c2ccccc2-c2nnn[nH]2)nc1 [Example 7, 2-Propyl-1-[[2-[2-(1H-tetrazol-5-yl)phenyl]-5-pyridinyl]methyl]-1H-benzimidazole]
15 µM	CCCc1nc2c(C)cccc2n1Cc1ccc(-c2ccccc2-c2nnn[nH]2)nc1 [Example 8, 4-Methyl-2-propyl-1-[[2-[2-(1H-tetrazol-5-yl)phenyl]-5-pyridinyl]methyl]-1H-benzimidazole]
4.5 µM	FC(F)(F)c1nc2c(c(NCc3ccc(-c4ccccc4-c4nn[nH]n4)nc3)n1)CCCC2 [Example 9]
200 µM	CCCc1nc2ccccc2n1Cc1ccc(-c2ncccc2C(=O)O)cc1 [Example 10, 2-[4-[(2-Propyl-1H-benzimidazol-1-yl)methyl]phenyl]-3-pyridinecarboxylic Acid]

SMILES	IC50
CCCc1nc2ccccc2n1CCN1CCN(c2ccccc2-c2nnn[nH]2)CC1 [Example 5, 2-Propyl-1-[2-[4-[2-(1H-tetrazol-5-yl)phenyl]-1-piperazinyl]ethyl]-1H-benzimidazole Potassium Salt]	43 µM

system: A II-infused rat; assay: A II-infused rat model (ganglion-blocked), antihypertensive action; format: in vivo; settings: 3 mg/kg id (intraduodenal), four hours post-administration
Procedure: In accordance with their ability to antagonize angiotensin II, the compounds of this invention show antihypertensive action in the following A II-infused rat model. Rats are anesthetized with Dial-Urethane (0.60 mL/kg, ip) and the trachea cannulated with PE 240. Either one femoral artery and both femoral veins or the carotid artery and the corresponding jugular vein are cannulated with PE 50. If the jugular vein is cannulated, two cannulas are placed in the one vein. The initial portion of the duodenum (just distal to the stomach) is cannulated with PE 50 via a small midline incision. Arterial pressure and heart rate are measured from the arterial cannula. Ten to 15 min are allowed following surgery for stabilization of arterial pressure. Ganglion blockade is then produced by intravenous administration of mecamylamine at 3 mg/kg (1 mL/kg of a 3 mg/mL solution). Ganglion blockade causes a fall in arterial pressure of about 50 mmHg. Mecamylamine is given every 90 min throughout the remainder of the experiment. An A II infusion is then begun into the other venous cannula at 0.25 μg/kg/min (at […]). The A II infusion returns arterial pressure to or slightly above the control level. Once arterial pressure has stabilized with the A II infusion, baseline values for mean arterial pressure (MAP) and heart rate are taken. […]

SMILES	lowering of A II dependent blood pressure, average
FC(F)(F)c1nc2c(c(NCc3ccc(-c4ccccc4-c4nn[nH]n4)nc3)n1)CCCC2 [Example 9]	70%
